In ChEMBL document CHEMBL5506003, “Design and biological evaluation of dual tubulin/HDAC inhibitors based on millepachine for treatment of prostate cancer” (Eur J Med Chem, 2024):
Activity calls are given as the source filed them. The rule behind the calls is not given here.

What was measured:
PC-3 [1] = experiment: Induction of cell cycle arrest in human PC-3 cells assessed as S phase cells at 0.16 uM incubated for 24 hrs by PI staining based flow cytometry analysis (reference value: 31.7%); type: functional
PC-3 [2] = experiment: Induction of mitochondrial membrane potential loss in human PC-3 cells assessed as increase in monomer JC-1 level by measuring green fluorescence intensity at 0.08 uM incubated for 24 hrs by JC-1 staining based flow cytometry analysis (reference value: 6.44%); type: functional
PC-3 [3] = experiment: Antitumor activity against human PC-3 cells xenografted in iv dosed BALB/c nude mouse assessed as tumor growth inhibition administered every 2 days and measured after 3 weeks; type: functional, organism-based; conditions: dose 10-20 mg/kg
PC-3 [4] = experiment: Induction of apoptosis in human PC-3 cells assessed as necrotic cells at 0.16 uM incubated for 24 hrs by Annexin V-FITC and PI staining based flow cytometry (reference value: 0.13%); type: functional
[5] = Half-life in Sprague-Dawley rat at 2 mg/kg, iv measured upto 24 hrs by HPLC-MS analysis; type: ADME, organism-based; conditions: in vivo
PC-3 [6] = experiment: Induction of apoptosis in human PC-3 cells assessed as viable cells at 0.08 uM incubated for 24 hrs by Annexin V-FITC and PI staining based flow cytometry (reference value: 97.5%); type: functional; conditions: read-out: Activity
PC-3 [7] = experiment: Induction of apoptosis in human PC-3 cells assessed as early apoptotic cells at 0.32 uM incubated for 24 hrs by Annexin V-FITC and PI staining based flow cytometry (reference value: 1.32%); type: functional
PC-3 [8] = experiment: Induction of ROS generation in human PC-3 cells at 0.16 uM incubated for 24 hrs by DCFH-DA staining based flow cytometry analysis (reference value: 2.63%); type: functional
Histone deacetylase 2 = Histone deacetylase 2 (Homo sapiens, UniProt Q92769); experiment: Inhibition of HDAC2 in human HeLa nuclear extracts incubated for 30 mins by fluorescence based assay; type: cell-based
PC-3 [9] = experiment: Antitumor activity against human PC-3 cells xenografted in BALB/c nude mouse assessed as tumor growth inhibition at 20 mg/kg, iv administered every 2 days and measured after 3 weeks; type: functional; conditions: PC-3, 48 h, time 2 day, read-out: TGI
[10] = MRT(0 to t) in Sprague-Dawley rat at 2 mg/kg, iv measured upto 24 hrs by HPLC-MS analysis; type: ADME, organism-based; conditions: in vivo
PC-3 [11] = experiment: Induction of apoptosis in human PC-3 cells assessed as late apoptotic cells at 0.16 uM incubated for 24 hrs by Annexin V-FITC and PI staining based flow cytometry (reference value: 1.02%); type: functional
PC-3 [12] = experiment: Induction of mitochondrial membrane potential loss in human PC-3 cells assessed as increase in monomer JC-1 level by measuring green fluorescence intensity at 0.32 uM incubated for 24 hrs by JC-1 staining based flow cytometry analysis (reference value: 6.44%); type: functional
PC-3 [13] = experiment: Induction of mitochondrial membrane potential loss in human PC-3 cells incubated for 24 hrs by JC-1 staining based flow cytometry analysis; type: functional, cell-based; conditions: dose 0.08-0.32 µM
A549 [14] = experiment: Inhibition of cell migration in human A549 cells at 0.4 to 1.6 uM incubated for 24 hrs by crystal violet staining based transwell method; type: functional; conditions: dose 0.4-1.6 µM
Histone deacetylase 7 = target: T1, Histone deacetylase 7 (Homo sapiens, UniProt Q8WUI4); experiment: Inhibition of HDAC7 in human HeLa nuclear extracts incubated for 30 mins by fluorescence based assay; type: cell-free
T1 sequence (Q8WUI4 whole entry): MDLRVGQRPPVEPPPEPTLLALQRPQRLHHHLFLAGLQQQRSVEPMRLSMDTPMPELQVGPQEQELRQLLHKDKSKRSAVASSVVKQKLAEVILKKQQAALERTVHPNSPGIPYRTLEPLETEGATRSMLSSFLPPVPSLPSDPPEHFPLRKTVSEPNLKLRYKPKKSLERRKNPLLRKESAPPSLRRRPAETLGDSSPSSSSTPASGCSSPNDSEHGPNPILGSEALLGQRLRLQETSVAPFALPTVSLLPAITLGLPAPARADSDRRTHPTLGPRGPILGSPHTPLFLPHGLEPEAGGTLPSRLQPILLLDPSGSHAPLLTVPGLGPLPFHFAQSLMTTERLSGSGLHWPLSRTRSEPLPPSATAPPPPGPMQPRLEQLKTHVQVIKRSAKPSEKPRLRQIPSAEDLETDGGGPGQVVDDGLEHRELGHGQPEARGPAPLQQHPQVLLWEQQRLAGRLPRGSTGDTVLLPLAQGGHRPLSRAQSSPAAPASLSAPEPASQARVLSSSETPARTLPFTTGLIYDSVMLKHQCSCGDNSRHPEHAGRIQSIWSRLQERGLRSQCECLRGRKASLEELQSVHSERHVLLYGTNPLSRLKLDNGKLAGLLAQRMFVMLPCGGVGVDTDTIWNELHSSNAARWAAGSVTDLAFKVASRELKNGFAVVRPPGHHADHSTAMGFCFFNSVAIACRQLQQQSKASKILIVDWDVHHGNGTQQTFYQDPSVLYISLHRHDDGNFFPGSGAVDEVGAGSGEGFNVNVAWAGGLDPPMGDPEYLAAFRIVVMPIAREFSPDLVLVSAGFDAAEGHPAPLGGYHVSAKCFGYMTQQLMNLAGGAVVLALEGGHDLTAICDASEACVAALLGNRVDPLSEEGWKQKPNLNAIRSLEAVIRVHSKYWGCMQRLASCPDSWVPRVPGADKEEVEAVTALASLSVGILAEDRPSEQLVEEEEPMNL

PC-3 [15] = experiment: Induction of cell cycle arrest in human PC-3 cells assessed as increase in cyclin B1 level at 0.08 to 0.32 uM by Western blotting analysis; type: functional, cell-based; conditions: dose 0.08-0.32 µM
PC-3 [16] = experiment: Cytotoxicity against human PC-3 cells incubated for 72 hrs by MTT assay; conditions: PC-3, 72 h
PC-3 [17] = experiment: Induction of cell cycle arrest in human PC-3 cells assessed as G1 phase cells at 0.08 uM incubated for 24 hrs by PI staining based flow cytometry analysis (reference value: 56.17%); type: functional
[18] = Clearance in Sprague-Dawley rat at 2 mg/kg, iv measured upto 24 hrs by HPLC-MS analysis; type: ADME, organism-based; conditions: in vivo
[19] = Toxicity in BALB/c nude mouse xenografted with human PC-3 cells assessed as kidney damage at 10 to 20 mg/kg, iv administered every 2 days and measured after 3 weeks; type: organism-based; conditions: in vivo, 504 h, dose 10-20 mg/kg
PC-3 [20] = experiment: Induction of cell cycle arrest in human PC-3 cells assessed as S phase cells at 0.08 uM incubated for 24 hrs by PI staining based flow cytometry analysis (reference value: 31.7%); type: functional
PC-3 [21] = experiment: Induction of ROS generation in human PC-3 cells at 0.08 uM incubated for 24 hrs by DCFH-DA staining based flow cytometry analysis (reference value: 2.63%); type: functional
A549 [22] = experiment: Inhibition of cell migration in human A549 cells incubated for 24 hrs by scratch wound healing method; type: functional, cell-based; conditions: dose 0.4-1.6 µM
PC-3 [23] = experiment: Induction of mitochondrial membrane potential loss in human PC-3 cells assessed as increase in monomer JC-1 level by measuring green fluorescence intensity at 0.16 uM incubated for 24 hrs by JC-1 staining based flow cytometry analysis (reference value: 6.44%); type: functional
U-251 = experiment: Cytotoxicity against human U-251 cells incubated for 72 hrs by MTT assay; conditions: U-251, 72 h

Sequence of Histone deacetylase 2 (Q92769 whole entry): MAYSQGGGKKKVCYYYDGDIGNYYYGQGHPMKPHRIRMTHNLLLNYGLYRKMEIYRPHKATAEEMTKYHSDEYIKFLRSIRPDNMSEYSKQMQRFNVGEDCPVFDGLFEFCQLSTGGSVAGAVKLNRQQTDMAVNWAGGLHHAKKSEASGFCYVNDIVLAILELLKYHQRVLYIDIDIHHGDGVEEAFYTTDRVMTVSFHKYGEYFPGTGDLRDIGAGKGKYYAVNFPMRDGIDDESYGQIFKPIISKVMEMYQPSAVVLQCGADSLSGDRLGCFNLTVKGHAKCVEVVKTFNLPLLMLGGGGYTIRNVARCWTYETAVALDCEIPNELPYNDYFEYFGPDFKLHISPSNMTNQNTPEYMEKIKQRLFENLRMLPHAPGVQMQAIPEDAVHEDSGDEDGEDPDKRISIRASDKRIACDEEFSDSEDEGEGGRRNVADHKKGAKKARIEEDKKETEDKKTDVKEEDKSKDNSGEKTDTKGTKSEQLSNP

half-life [5]: 0.91 h
IC50 (Histone deacetylase 2): 430 nM
MRT last at 24 h [10]: 1.32 h
IC50 (Histone deacetylase 7): 2340 nM
clearance [18]: 5 mL/min/kg
SMILES: COc1ccc(/C=C/C(=O)c2ccc(OC)c3c2OC(C)(C)C=C3)cc1NCC(=O)NO
Activity (PC-3 [1]): 28.7%
Activity (PC-3 [2]): 10.6%
Activity (PC-3 [3]): Dose-Dependent Effect
Activity (PC-3 [4]): 0.47%
viability at 0.08 µM (PC-3 [6]): 94.8%
Activity (PC-3 [7]): 63.8%
Activity (PC-3 [8]): 75.4%
inhibition in vivo at 20 mg/kg (PC-3 [9]): 90.1%
Activity (PC-3 [11]): 5.28%
Activity (PC-3 [12]): 38.8%
Activity (PC-3 [13]): Dose-Dependent Effect
inhibition (A549 [14]): Active
Activity (PC-3 [15]): Active
IC50 (PC-3 [16]): 16 nM
Activity (PC-3 [17]): 34.64%
Activity [19]: Non-Toxic
Activity (PC-3 [20]): 39.9%
Activity (PC-3 [21]): 45.7%
inhibition (A549 [22]): Dose-Dependent Effect
Activity (PC-3 [23]): 20.7%
IC50 (U-251): 150 nM
